The test system of one test is Panc-Tu-I. In words: Real time cell analysis (RTCA) impedance proliferation measurement.
The next test deals with BxPC-3. Described as above. To be noted: administered 24 hours after seeding, monitored up to 100 hours. It counts as cell-based.
The next test concerns the target PDEδ (Homo sapiens, UniProt O43924). Kind of test: Fluorescence polarization competition binding assay (displacement titration of labeled Atorvastatin-probe). To be noted: fluorescence polarization assay, displacement of fluorescent-tagged Atorvastatin analog from PDEδ; read-out: KD. From the text: Example C.2: Displacement titrations of labeled Atorvastatin-probe for the determination of KD values:
Table 3. KD values for compounds of general formula (I) as determined by means of fluorescence polarization assay
Background: In fluorescence polarisation assays a small probe gives low polarisation when free and higher when bound to something large.

For orientation: Kd means the concentration at which binding is half-saturated.

The structures appear in SMILES notation.

On to `Cc1ccc(-n2nc3c(=O)n(CCCC(=O)NCC(C)c4ccccc4)nc(C)c3c2C)cc1` (stereo not shown) [Compound 50, 4-(3,4-dimethyl-7-oxo-2-(p-tolyl)-2H-pyrazolo[3,4-d]pyridazin-6(7H)-yl)-N-(2-phenylpropyl)butanamide], for which, in the test on Panc-Tu-I (Panc-Tu-I (Figure 6f), after a certain time), the cell death result is on record as “leading after a certain time to cell death”. Besides, the “proliferation of K-Ras dependent cells” value was “inhibits the proliferation” with Panc-Tu-I (Panc-Tu-I, administered 24 hours after seeding, monitored up to 100 hours) and “inhibits the proliferation” in the test on BxPC-3. With `Cc1c2cnn(-c3ccccc3)c(=O)c2c(C)n1CCCC(=O)NC1CCCCC1` [Compound 11, N-cyclohexyl-4-(5,7-dimethyl-1-oxo-2-phenyl-1H-pyrrolo[3,4-d]pyridazin-6(2H)-yl)butanamide], the Kd on PDEδ was under 30 nM.

Regarding `Cc1c2cnn(-c3ccccc3)c(=O)c2c(C)n1CCCC(=O)NCc1ccccc1Cl` [Compound 4, N-(2-chlorobenzyl)-4-(5,7-dimethyl-1-oxo-2-phenyl-1H-pyrrolo[3,4-d]pyridazin-6(2H)-yl)butanamide], the Kd at PDEδ is under 30 nM. On to `Cc1c2cnn(-c3ccccc3)c(=O)c2c(C)n1CCCC(=O)NCc1cccs1` [Compound 6, 4-(5,7-dimethyl-1-oxo-2-phenyl-1H-pyrrolo[3,4-d]pyridazin-6(2H)-yl)-N-(thiophen-2-ylmethyl)butanamide], for which the equilibrium dissociation constant (Kd) at PDEδ was 100 to 1000 nM. For the compound `Cc1c2cnn(-c3ccccc3)c(=O)c2c(C)n1CCCc1nnc(-c2ccccc2)o1` [Compound 22, 5,7-dimethyl-2-phenyl-6-(3-(5-phenyl-1,3,4-oxadiazol-2-yl)propyl)-2,6-dihydro-1H-pyrrolo[3.4-d]pyridazin-1-one], the Kd on PDEδ lay in the range of 100 to 1000 nM.

The record behind these values is EP2955182A1, “Pyridazinones for the treatment of cancer” (Max-Planck-Gesellschaft zur Förderung der Wissenschaften …, priority 2014, dated 2015).
